Experimental findings from US10821100B2, “Triazolone compounds as mPGES-1 inhibitors” (Glenmark Pharmaceuticals S.A., priority 2012, dated 2020) are described below.

By inhibition is commonly meant the relative decrease from the control value, in per cent. For orientation: IC50 means the concentration needed to halve the response being measured.

The test addresses T1, Recombinant human mPGES-1 (Homo sapiens, UniProt O14684).
T1 construct: made in house; host or cells: CHO cells (crude microsomal fractions)
T1 sequence (O14684 1-152): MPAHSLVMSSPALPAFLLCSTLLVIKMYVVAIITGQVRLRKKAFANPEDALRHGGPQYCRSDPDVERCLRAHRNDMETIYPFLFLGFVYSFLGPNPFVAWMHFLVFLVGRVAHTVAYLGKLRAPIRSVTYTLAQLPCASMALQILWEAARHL
The test can be described thus: In-vitro screening of mPGES-1 inhibitors (inhibition of PGE2 formation from PGH2, HTRF detection). Conditions: mPGES-1 enzyme; for inhibition at 1 µM: 1 μM test compound, read-out: Percentage inhibition at 1 μM; for inhibition at 1 µM / inhibition at 10 µM / inhibition at 3 µM: crude microsomal fractions; for inhibition at 10 µM: 10 μM test compound, read-out: Percentage inhibition at 10 μM; for IC50: class symbols; for inhibition at 3 µM: 3 μM test compound, read-out: Percentage inhibition at 3 μM. Type of test: biochemical. The gist of the method:
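PGH2-to-PGE2 isomerization run for 1 min with 15 μM PGH2 after 10 min compound preincubation with microsomal enzyme (40–60 μg/mL) and 2.5 mM GSH, pH buffer 0.1 M potassium phosphate with EDTA. Stannous chloride quench, HTRF PGE2 readout, IC50 fitted against uninhibited reaction.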
For orientation: TR-FRET usually uses a lanthanide donor and a delayed reading to cut background.

Consider `COc1cc(-n2nc(-c3c(C)cccc3Cl)[nH]c2=O)ccc1C(=O)Nc1ccc(F)c(C(F)F)c1` [Example-53, 4-(3-(2-Chloro-6-methylphenyl)-5-oxo-4,5-dihydro-1H-1,2,4-triazol-1-yl)-N-(3-(difluoromethyl)-4-fluorophenyl)-2-methoxybenzamide], for which the inhibition at 1 µM turned out to be 82.7%, the inhibition at 10 µM was determined as 97.9% and the IC50 is less than 50 nM.

Take `COc1cc(-n2nc(-c3c(C)cccc3Cl)[nH]c2=O)ccc1C(=O)Nc1cccc(C(F)F)c1` [Example-54, 4-(3-(2-Chloro-6-methylphenyl)-5-oxo-4,5-dihydro-1H-1,2,4-triazol-1-yl)-N-(3-(difluoromethyl)phenyl)-2-methoxybenzamide]: the inhibition at 1 µM is 89.4%, the inhibition at 10 µM was 97.5% and the IC50 was 50 to 100 nM.

Turning to `COc1cc(-n2nc(-c3c(C)cccc3Cl)[nH]c2=O)ccc1-c1nc(-c2ccc(Cl)cc2)no1` [Example-55, 3-(2-Chloro-6-methylphenyl)-1-(4-(3-(4-chlorophenyl)-1,2,4-oxadiazol-5-yl)-3-methoxyphenyl)-1H-1,2,4-triazol-5(4H)-one], the inhibition at 1 µM came to 81%, the inhibition at 3 µM came to 91.8% and the IC50 was less than 50 nM.

For the molecule `COc1cc(-n2nc(-c3c(C)cccc3Cl)[nH]c2=O)ccc1C(=O)Nc1cccc(C(F)(F)F)c1` [Example-56, 4-(3-(2-Chloro-6-methylphenyl)-5-oxo-4,5-dihydro-1H-1,2,4-triazol-1-yl)-2-methoxy-N-(3-(trifluoromethyl)phenyl)benzamide], the inhibition at 1 µM came to 98.1%, the inhibition at 10 µM was found to be 98.5% and the IC50 was less than 50 nM.

Take `COc1cc(-n2nc(-c3cc(CNC(=O)C4CC4)ccc3Cl)[nH]c2=O)ccc1-c1nc(-c2ccc(Cl)cc2)no1` [Example-57, N-(4-Chloro-3-(1-(4-(3-(4-chlorophenyl)-1,2,4-oxadiazol-5-yl)-3-methoxyphenyl)-5-oxo-4,5-dihydro-1H-1,2,4-triazol-3-yl)benzyl)cyclopropanecarboxamide]: the inhibition at 1 µM is 98.7%, the inhibition at 3 µM was 98.5% and the IC50 is less than 50 nM.

Consider `COc1cc(-n2nc(-c3c(F)cccc3Cl)[nH]c2=O)ccc1-c1nc2cc(C)c(C)cc2n1C` [Example-58, 3-(2-Chloro-6-fluorophenyl)-1-(3-methoxy-4-(1,5,6-trimethyl-1H-benzo[d]imidazol-2-yl)phenyl)-1H-1,2,4-triazol-5(4H)-one], for which the inhibition at 1 µM is 95.2%, the inhibition at 10 µM stood at 97.3% and the IC50 fell in the range of 50 to 100 nM.

Take `COc1cc(-n2nc(-c3c(F)cccc3Cl)[nH]c2=O)ccc1C#Cc1cc(Cl)ccc1Cl` [Example-59, 3-(2-Chloro-6-fluorophenyl)-1-(4-((2,5-dichlorophenyl)ethynyl)-3-methoxyphenyl)-1H-1,2,4-triazol-5(4H)-one]: the inhibition at 1 µM was 93.9%, the inhibition at 10 µM was determined as 96.8% and the IC50 is less than 50 nM.

As to `COc1cc(-n2nc(-c3c(F)cccc3Cl)[nH]c2=O)ccc1C#Cc1cccc(Cl)c1F` [Example-60, 1-(4-((3-Chloro-2-fluorophenyl)ethynyl)-3-methoxyphenyl)-3-(2-chloro-6-fluorophenyl)-1H-1,2,4-triazol-5(4H)-one], the inhibition at 1 µM is 95.4%, the inhibition at 10 µM stood at 93.1% and the IC50 was less than 50 nM.

As for `COc1cc(-n2nc(-c3c(F)cccc3Cl)[nH]c2=O)ccc1C#Cc1ccc(C(F)(F)F)cc1Cl` [Example-61, 1-(4-((2-Chloro-4-(trifluoromethyl)phenyl)ethynyl)-3-methoxyphenyl)-3-(2-chloro-6-fluorophenyl)-1H-1,2,4-triazol-5(4H)-one], the inhibition at 1 µM is 92.4%, the inhibition at 10 µM amounted to 96.8% and the half-inhibitory concentration (IC50) is less than 50 nM.

As for `COc1cc(-n2nc(-c3c(Cl)cccc3C#N)[nH]c2=O)ccc1C(=O)Nc1cccc(C(F)(F)F)c1` [Example-62, 4-(3-(2-Chloro-6-cyanophenyl)-5-oxo-4,5-dihydro-1H-1,2,4-triazol-1-yl)-2-methoxy-N-(3-(trifluoromethyl)phenyl)benzamide], the inhibition at 1 µM was determined as 97.8%, the inhibition at 10 µM worked out at 98.3% and the IC50 was less than 50 nM.

For the molecule `COc1cc(-n2nc(-c3cc(CNC(=O)C4CC4)ccc3Cl)[nH]c2=O)ccc1C(=O)Nc1ccc(F)c(C(F)F)c1` [Example-63, 4-(3-(2-Chloro-5-(cyclopropanecarboxamidomethyl)phenyl)-5-oxo-4,5-dihydro-1H-1,2,4-triazol-1-yl)-N-(3-(difluoromethyl)-4-fluorophenyl)-2-methoxybenzamide], the inhibition at 1 µM is 92.4%, the inhibition at 10 µM was 94.8% and the IC50 is less than 50 nM.

For `COc1cc(-n2nc(-c3c(Cl)cccc3Cl)[nH]c2=O)ccc1C(=O)Nc1cc(CNC(=O)C2CC2)ccc1Cl` [Example-64, N-(2-Chloro-5-(cyclopropanecarboxamidomethyl)phenyl)-4-(3-(2,6-dichlorophenyl)-5-oxo-4,5-dihydro-1H-1,2,4-triazol-1-yl)-2-methoxybenzamide], the inhibition at 1 µM is 28.9% and the inhibition at 10 µM was found to be 63.8%.

On to `COc1cc(-n2nc(-c3c(Cl)cccc3Cl)[nH]c2=O)ccc1-c1nc2cc(C(F)(F)F)ccc2[nH]1` [Example-65, 3-(2,6-Dichlorophenyl)-1-(3-methoxy-4-(5-(trifluoromethyl)-1H-benzo[d]imidazol-2-yl)phenyl)-1H-1,2,4-triazol-5(4H)-one], for which the inhibition at 1 µM was 75.5% and the inhibition at 10 µM stood at 94.5%.

As for `COc1cc(-n2nc(-c3cc(CNC(=O)C4CC4)ccc3Cl)[nH]c2=O)ccc1NC(=O)C1CC1` [Example-66, N-(4-Chloro-3-(1-(4-(cyclopropanecarboxamido)-3-methoxyphenyl)-5-oxo-4,5-dihydro-1H-1,2,4-triazol-3-yl)benzyl)cyclopropanecarboxamide], the inhibition at 1 µM amounted to 87.8%, the inhibition at 10 µM came to 98.8% and the IC50 is greater than 100 nM.

As to `COc1cc(-n2nc(-c3c(Cl)cccc3Cl)[nH]c2=O)ccc1C(=O)Nc1ccc(S(C)(=O)=O)cc1` [Example-67, 4-(3-(2,6-Dichlorophenyl)-5-oxo-4,5-dihydro-1H-1,2,4-triazol-1-yl)-2-methoxy-N-(4-(methylsulfonyl)phenyl)benzamide], the inhibition at 1 µM turned out to be 72.7% and the inhibition at 10 µM was found to be 96.3%.

Turning to `COc1cc(-n2nc(-c3cc(CNC(=O)C4CC4)ccc3Cl)[nH]c2=O)ccc1C(=O)Nc1cccc(C(F)F)c1` [Example-68, 4-(3-(2-Chloro-5-(cyclopropanecarboxamidomethyl)phenyl)-5-oxo-4,5-dihydro-1H-1,2,4-triazol-1-yl)-N-(3-(difluoromethyl)phenyl)-2-methoxybenzamide], the inhibition at 1 µM was found to be 97.4%, the inhibition at 10 µM stood at 96.4% and the IC50 was less than 50 nM.

For `COc1cc(-n2nc(-c3cc(S(=O)(=O)NC4CC4)ccc3Cl)[nH]c2=O)ccc1C(=O)Nc1cccc(C(F)(F)F)c1` [Example-69, 4-(3-(2-Chloro-5-(N-cyclopropylsulfamoyl)phenyl)-5-oxo-4,5-dihydro-1H-1,2,4-triazol-1-yl)-2-methoxy-N-(3-(trifluoromethyl)phenyl)benzamide], the inhibition at 1 µM turned out to be 86.4%, the inhibition at 10 µM is 89.1% and the IC50 is greater than 100 nM.

For `CCn1c(-c2c(Cl)cccc2Cl)nn(-c2ccc(C(=O)Nc3cccc(C(F)(F)F)c3)c(OC)c2)c1=O` [Example-70, 4-(3-(2,6-Dichlorophenyl)-4-ethyl-5-oxo-4,5-dihydro-1H-1,2,4-triazol-1-yl)-2-methoxy-N-(3-(trifluoromethyl)phenyl)benzamide], the inhibition at 1 µM came out at 0.55% and the inhibition at 10 µM is 6.63%.

Take `CCn1c(-c2c(F)cccc2Cl)nn(-c2ccc(C#Cc3cccc(Cl)c3F)cc2)c1=O` [Example-71]: the inhibition at 1 µM came out at 12.9% and the inhibition at 10 µM turned out to be 17.9%.

For the molecule `O=C(Nc1cccc(C(F)(F)F)c1)c1ccc(-n2nc(-c3cc(CNC(=O)C4CC4)ccc3Cl)[nH]c2=O)cc1` [Example-72, 4-(3-(2-Chloro-5-(cyclopropanecarboxamidomethyl)phenyl)-5-oxo-4,5-dihydro-1H-1,2,4-triazol-1-yl)-N-(3-(trifluoromethyl)phenyl)benzamide], the inhibition at 1 µM came to 99.2%, the inhibition at 3 µM came out at 99% and the IC50 was less than 50 nM.

With `COc1cc(-n2nc(-c3c(Cl)cccc3C#N)[nH]c2=O)ccc1C(=O)Nc1ccc(F)c(C(F)(F)F)c1` [Example-73, 4-(3-(2-Chloro-6-cyanophenyl)-5-oxo-4,5-dihydro-1H-1,2,4-triazol-1-yl)-N-(4-fluoro-3-(trifluoromethyl)phenyl)-2-methoxybenzamide], the inhibition at 1 µM came out at 92.4%, the inhibition at 10 µM was found to be 92.4% and the concentration for half-maximal inhibition (IC50) is less than 50 nM.

As for `COc1cc(-c2nn(-c3c(Cl)cccc3Cl)c(=O)[nH]2)ccc1C#Cc1cccc(Cl)c1F` [Example-74], the inhibition at 1 µM came out at 93.2%, the inhibition at 10 µM is 98.7% and the concentration for half-maximal inhibition (IC50) is 50 to 100 nM.

Take `COc1cc(-c2nn(-c3c(Cl)cccc3Cl)c(=O)[nH]2)ccc1C#Cc1ccc(C(F)(F)F)cc1Cl` [Example-75, 3-(4-((2-Chloro-4-(trifluoromethyl)phenyl)ethynyl)-3-methoxyphenyl)-1-(2,6-dichlorophenyl)-1H-1,2,4-triazol-5(4H)-one]: the inhibition at 1 µM worked out at 99.1%, the inhibition at 10 µM stood at 98.3% and the IC50 is less than 50 nM.
